Laboratory results published in US20230348453A1, “HALOGENATED-HETEROARYL AND OTHER HETEROCYCLIC KINASE INHIBITORS, AND USES THEREOF” (iOmx Therapeutics AG, priority 2020, published 2023).

Experiments:
CSF1R = CSF1R (Homo sapiens (Human), UniProt P07333); assay type: biochemical; details: Kinase Profiler
HCK = HCK (Homo sapiens (Human), UniProt P08631); assay type: biochemical; details: Kinase Profiler
[1] = Human hepatocyte stability; assay type: in vitro ADME
[2] = Mouse hepatocyte stability; assay type: in vitro ADME; details: hepatocytes
[3] = system: SIK3 WT and KO MC38 clones; assay: TNF-mediated killing of SIK3 wildtype vs SIK3 knockout MC38 clones (CTG); assay type: cell-based, mouse; details: sub-optimal TNF (<10 ng/ml), 72 h
Experimental: The assay was performed as follows: MC38 SIK3 KO clones were generated using CRISPR. Cells were transfected with RNP complexes (Cas9+gRNA) containing gRNAS targeting SIK3 or non-targeting sequences (control). […] Subsequently, single cell clones were generated by limiting dilution. CRISPR-derived mutations in single clones were detected by next-generation sequencing and analysed using CRISPResso. Knockout and wildtype clones were selected and plated overnight. […] Cells treated with different concentrations of inhibitor but without TNF served as no TNF control. Cell viability was measured by CTG assay.

SIK3 [4] = target: T1, SIK3 (Homo sapiens (Human), UniProt Q9Y2K2); details: fold of the value of compound C7 (C7 = 1×)
[5] = in vivo, po, 30 mg/kg
[6] = female, C57BL/6, mouse, in vivo, 7 days
in vivo = details: male, CD1, mouse, po, 30 mg/kg
in vitro [7] = details: human, microsomes
in vitro [8] = details: mouse, microsomes
SIK2 = SIK2 (Homo sapiens (Human), UniProt Q9H0K1); assay: SIK2 kinase inhibition (IC50); details: read-out: Kinase: IC50 (nM) SIK2
SIK3 [9] = target: T1, SIK3; assay: SIK3 kinase inhibition (IC50)
[10] = Human plasma-protein binding
[11] = Murine plasma protein binding
MDR1 (P-gp) = MDR1 (P-gp) (Homo sapiens (Human), UniProt P08183); assay: MDR1-MDCK effective efflux assay; details: dog; for efflux ratio: Table 5.1B
[12] = target: MDR1 pump (P-gp), MDCK-MDR1 cells (Homo sapiens (Human), UniProt P08183); assay: MDR1-MDCK effective efflux assay; details: Table 5.1B
[13] = MDCK wild type permeability/efflux; details: dog
[14] = Screening PK in mice after 30 mg/kg po; details: for concentration at 6 h: mice, 30 mg/kg po
[15] = Metabolite profile in hepatocytes / in vivo
Text: Metabolites are identified using high-resolution mass spectrometry.

[16] = system: MC38 colorectal carcinoma tumours; assay: MC38 syngeneic mouse tumour model (Example 8.1)
[17] = system: HDAC4 phosphorylation in PANC-1 cells; assay: HDAC4 phosphorylation (Meso Scale Discovery assay); details: 10 ng/mL rHuTNF, 3 h
[18] = system: MC38 murine tumour cell line; assay: TNF-sensitised cell viability assay (CellTiter-Glo); details: Mus musculus
HCT116 cells = assay: as above; details: Homo sapiens, HCT-116, read-out: HCT116 IC50 (at 10 ng/ml rHuTNF)
[19] = system: NFKB activity in PANC-1 cells; assay: TNF-induced NFKB activity (NFKB-dependent luciferase reporter); details: 10 ng/ml rHuTNF, PANC-1 reporter cells
[20] = system: NFKB activity in MC38 cells; assay: as above; details: 10 ng/ml rMuTNF
[21] = total plasma concentration at 30 mg/kg p.o dose, fold of C7 (C7 = 1×)

CSF1R, sequence (P07333 20-972 limits assumed): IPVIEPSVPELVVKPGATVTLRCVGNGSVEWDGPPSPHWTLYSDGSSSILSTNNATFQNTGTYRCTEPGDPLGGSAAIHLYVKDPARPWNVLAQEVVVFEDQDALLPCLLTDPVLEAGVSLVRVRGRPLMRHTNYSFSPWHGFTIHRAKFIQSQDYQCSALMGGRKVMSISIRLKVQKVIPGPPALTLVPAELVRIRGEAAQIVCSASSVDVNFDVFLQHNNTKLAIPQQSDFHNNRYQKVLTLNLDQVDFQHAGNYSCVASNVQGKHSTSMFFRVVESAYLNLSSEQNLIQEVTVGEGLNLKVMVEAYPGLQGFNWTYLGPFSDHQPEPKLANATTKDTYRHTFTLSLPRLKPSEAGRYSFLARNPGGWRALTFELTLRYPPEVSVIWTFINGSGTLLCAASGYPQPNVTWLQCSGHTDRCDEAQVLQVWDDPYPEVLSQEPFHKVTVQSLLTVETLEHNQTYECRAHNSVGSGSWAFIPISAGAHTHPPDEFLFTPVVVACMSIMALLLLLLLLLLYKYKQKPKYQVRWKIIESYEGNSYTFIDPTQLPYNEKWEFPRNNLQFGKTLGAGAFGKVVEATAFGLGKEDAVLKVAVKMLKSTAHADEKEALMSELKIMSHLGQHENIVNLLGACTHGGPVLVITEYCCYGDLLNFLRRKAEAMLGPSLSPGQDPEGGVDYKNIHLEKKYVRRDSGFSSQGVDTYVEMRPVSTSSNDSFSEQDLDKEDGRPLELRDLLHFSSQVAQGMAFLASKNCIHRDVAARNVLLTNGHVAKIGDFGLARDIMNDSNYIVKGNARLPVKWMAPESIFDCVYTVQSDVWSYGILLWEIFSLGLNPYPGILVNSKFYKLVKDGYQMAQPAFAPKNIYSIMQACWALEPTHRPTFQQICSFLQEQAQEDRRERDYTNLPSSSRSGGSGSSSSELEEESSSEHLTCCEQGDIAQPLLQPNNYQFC

Cc1nc(Nc2ncc(C(=O)Nc3c(CF)csc3Cl)s2)cc(N2CCN(C)C(C)C2)n1 (racemic) [Compound E10, N-(2-chloro-4-(fluoromethyl)thiophen-3-yl)-2-((6-(3,4-dimethylpiperazin-1-yl)-2-methylpyrimidin-4-yl)amino)thiazole-5-carboxamide]
CSF1R residual activity (CSF1R): less than 1%
HCK residual activity (HCK): less than 1%
Human hepatocyte stability, Half-life [1]: 21 min
half-life ([1]; human, hepatocytes, read-out: Human hepatocyte stability, Half-life): 21 to 30 min
microsomal CLint ([1]; human, hepatocytes, read-out: Human hepatocyte stability, Intrinsic clearance): 67 µL/min/mg
half-life [2]: 78 min
microsomal CLint ([2]; read-out: Mouse hepatocyte stability, Intrinsic clearance): 18 µL/min/mg
TNF-mediated killing in SIK3 WT vs KO MC38 clones [3]: induced TNF-mediated killing only in SIK3 WT clones
SIK3 IC50 (nM), relative to C7 (SIK3 [4]): 0.7×
% AUCextrap, Free ([5]; male, CD1, mouse): 4.05%
% AUCextrap, Total ([5]; male, CD1, mouse): 4.05%
AUCinf (nM*h), Free ([5]; male, CD1, mouse): 128.06 nM·h
AUClast (nM*h), Free ([5]; male, CD1, mouse): 122.87 nM·h
Rsq, Free ([5]; mouse): 0.81
Rsq, Total ([5]; mouse): 0.81
DLT@BID dosing [6]: n.d. @30 mg/kg
DLT@QD dosing [6]: n.d. @30 mg/kg
HRD in vivo @BID [6]: 30 mg/kg
HRD in vivo @QD [6]: 30 mg/kg
AUC(0-inf) (in vivo): 6.17 µM·h
AUC(0-t) (in vivo): 5.92 µM·h
Cmax (in vivo): 2040 ng/mL
MRT last (in vivo): 4.1 h
Tmax (in vivo): 15 min
half-life (in vivo): 261 min
half-life (in vitro [7]): 12 min
microsomal CLint (in vitro [7]): 120 µL/min/mg
half-life (in vitro [8]): 14 min
microsomal CLint (in vitro [8]): 99 µL/min/mg
IC50 (SIK2): < 20 nM
IC50 (SIK3 [9]): 20 to 50 nM
Human plasma-protein binding, Percentage unbound (%) ([10]; Table 5.1A): 1%
recovery at 4 h ([10]; human, plasma): 74%
Murine plasma protein binding, Percentage unbound (%) ([11]; Table 5.1A): 1%
recovery at 4 h ([11]; mouse, plasma): 101%
Papp (MDR1 (P-gp); MDCK-MDR1): 4 ×10⁻⁶ cm/s
efflux ratio (MDR1 (P-gp); MDCK-MDR1, MDCK-MDR1 cells, Mean Efflux Ratio (MDR1)): 20 to 30
efflux ratio (MDR1 (P-gp); MDCK-MDR1, P-gP driven efflux ratio (MDR1/wt)): 19
MDCK-MDR1 cells, Mean Efflux Ratio (MDR1) [12]: 31
Papp [13]: 10 ×10⁻⁶ cm/s
efflux ratio [13]: 1.6
Cmax at 2 h ([14]; mouse, plasma, po, 30 mg/kg): 374 ng/mL
concentration at 6 h ([14]; mouse, plasma, po, 30 mg/kg, Free plasma concentration after 6 h (nM)): 3.3 nM
concentration at 6 h ([14]; mouse, plasma, po, 30 mg/kg, Plasma concentration after 6 h (nM)): 157 nM
AUC0-last (nM*h), relative to C7 [14, 21]: 2×
C max (ng/ml), relative to C7 [14, 21]: 1.7×
MRT0-last (h), relative to C7 [14, 21]: 2.8×
t1/2 (h), relative to C7 [14, 21]: 14.5×
quinone-imine reactive metabolite [15]: not observed
TGI ([16]; MC38, dose not repeated): 46%
Body weight increase (%) ([16]; MC38, 30 mg/Kg, BID po): 19.8%
Non-treatment related death ([16]; MC38, 30 mg/Kg, BID po): 0/16
Tumour growth inhibition (%) ([16]; MC38, 30 mg/Kg, BID po): 46%
Inhibition of HDAC4 phosphorylation [17]: ++
IC50 ([18]; MC-38, read-out: MC38 IC50 (at 100 ng/mL rMuTNF)): < 100 nM
EC50 ([18]; MC-38, read-out: mean EC50 of sensitising MC38 tumour cells to TNF-mediated killing): < 100 nM
IC50 (HCT116 cells): < 100 nM
Inhibition of NFKB activity (PANC-1) [19]: ++
Inhibition of NFKB activity (MC38) [20]: ++
